Data reported in ChEMBL document CHEMBL3871304, “Novel benzothiazine-piperazine derivatives by peptide-coupling as potential anti-proliferative agents” (2017).

Experiments:
Format in all cases: functional
[1] = Growth inhibition of human HeLa cells after 48 hrs by SRB assay
[2] = Growth inhibition of human MiaPaCa cells after 48 hrs by SRB assay; conditions: MIA PaCa-2, 48 h
[3] = Growth inhibition of human MDA-MB-231 cells after 48 hrs by SRB assay; conditions: MDA-MB-231, 48 h
[4] = Growth inhibition of human IMR32 cells after 48 hrs by SRB assay; conditions: IMR-32, 48 h

| SMILES | GI50 ([1]; read-out: GI50) | GI50 ([1]; read-out: pGI50 (converted)) | GI50 [2] | GI50 [3] | GI50 [4] |
| --- | --- | --- | --- | --- | --- |
| O=C(CCN1C(=O)CSc2ccccc21)N1CCN(c2ccc([N+](=O)[O-])cc2)CC1 | 8.4 µM | 8.32 µM | 68.1 µM | 5.6 µM | 0.34 µM |
| O=C(CCN1C(=O)CSc2ccccc21)N1CCSCC1 | 18.5 µM | 18.6 µM | > 100 µM | 6 µM | 21.7 µM |
| COc1cccc2c1C(=O)c1c(O)c3c(c(O)c1C2=O)C[C@@](O)(C(=O)CO)C[C@@H]3O[C@H]1C[C@H](N)[C@H](O)[C@H](C)O1 [DOXORUBICIN] | 0.083 µM | 0.0832 µM | 0.095 µM | 0.073 µM | 0.025 µM |
| CC(=O)O[C@H]1C(=O)[C@@]2(C)[C@H]([C@H](OC(=O)c3ccccc3)[C@]3(O)C[C@H](OC(=O)[C@H](O)[C@@H](NC(=O)c4ccccc4)c4ccccc4)C(C)=C1C3(C)C)[C@]1(OC(C)=O)CO[C@@H]1C[C@@H]2O [PACLITAXEL] | 0.039 µM | 0.0389 µM | 0.06 µM | 0.092 µM | 0.086 µM |
| O=C(CCN1C(=O)CSc2ccccc21)N1CCN(c2ccccc2)CC1 | 41.9 µM | 41.7 µM | > 100 µM | 5.4 µM | < 0.01 µM |
| O=C(CCN1C(=O)CSc2ccccc21)N1CCN(c2ccc(C(F)(F)F)cc2)CC1 | 4.2 µM | 4.17 µM | > 100 µM | 1 µM | 46.4 µM |
| O=C(CCN1C(=O)CSc2ccccc21)NCCCN1CCC(Cc2ccccc2)CC1 | 56.2 µM | 56.2 µM | > 100 µM | 27.6 µM | 1.5 µM |
| COc1ccccc1N1CCN(CCCNC(=O)CCN2C(=O)CSc3ccccc32)CC1 | 0.97 µM | 0.977 µM | 59.2 µM | 2 µM | > 100 µM |
| O=C(CCN1C(=O)CSc2ccccc21)NCCCN1CCSCC1 | 0.12 µM | 0.12 µM | 83.3 µM | 0.63 µM | 0.82 µM |
| O=C(CCN1C(=O)CSc2ccccc21)NCCCN1CCN(c2ccc([N+](=O)[O-])cc2)CC1 | > 100 µM | 100 µM | > 100 µM | > 100 µM | 0.46 µM |
| O=C(CCN1C(=O)CSc2ccccc21)N1CCN(c2ccc(F)cc2)CC1 | 5.4 µM | 5.37 µM | > 100 µM | 2.2 µM | 10 µM |
| O=C(CCN1C(=O)CSc2ccccc21)NCCCN1CCN(c2ccccc2F)CC1 | 1.4 µM | 1.41 µM | > 100 µM | 4.6 µM | 1.4 µM |
| O=C(CCN1C(=O)CSc2ccccc21)NCCCN1CCN(c2ccc(C(F)(F)F)cc2)CC1 | 5.7 µM | 5.75 µM | > 100 µM | 20.4 µM | 1.4 µM |
| O=C(CCN1C(=O)CSc2ccccc21)N1CCN(c2ccccc2F)CC1 | 61 µM | 61.7 µM | > 100 µM | 1.6 µM | > 100 µM |
| CC(C)(C)OC(=O)N1CCN(C(=O)CCN2C(=O)CSc3ccccc32)CC1 | > 100 µM | 100 µM | 51.5 µM | > 100 µM | > 100 µM |
| COc1ccccc1N1CCN(C(=O)CCN2C(=O)CSc3ccccc32)CC1 | 11.9 µM | 12 µM | 34.9 µM | 6.6 µM | > 100 µM |
| O=C(CCN1C(=O)CSc2ccccc21)N1CCC(Cc2ccccc2)CC1 | 17.7 µM | 17.8 µM | 56.8 µM | 3.8 µM | 0.1 µM |
| O=C(CCN1C(=O)CSc2ccccc21)NCCCN1CCN(c2ccccc2)CC1 | 2.17 µM | 2.19 µM | > 100 µM | < 0.01 µM | > 100 µM |
